Results from patent EP1908513A1, “Method for preparing and using chemical collections” (priority 2006, dated 2008).
≈ marks a conversion by molar mass, not a printed value.

Key:
[1] = Solubilization in water or 30% PEG-8000/water, freeze-drying and reconstitution; concentration by HPLC (Example 1); conditions: for PEG solutions, freeze dried and reconstituted Test 1 / PEG solutions, freeze dried and reconstituted Test 2: 30% PEG-8000, reconstituted with water; for PEG solutions, freeze dried and reconstituted Test 1 / PEG solutions, freeze dried and reconstituted Test 2 / CPEG / Cw: target 200 µM; for CPEG: 30% PEG-8000 / water, 50-fold dilution of 10 mM DMSO stock; for CPEG / Cw: filtered 0.45 µm; for Cw: aqueous solution, 50-fold dilution of 10 mM DMSO solution; for PEG solutions, reconstituted and diluted 1:10 Test 1 / PEG solutions, reconstituted and diluted 1:10 Test 2: diluted 1:10 with water, target 20 µM; for PEG solutions, reconstituted and diluted 1:10 Test 1: 3% PEG-8000, Test 1; for PEG solutions, reconstituted and diluted 1:10 Test 2: 3% PEG-8000, Test 2
Procedure: Materials and methods. […] The following compounds were obtained from Fluka - Riedel deHaën: phenylacetic acid, p-toluenesulphonamide, carbazol (Vetranal analytical standard), Polyethylene glycol 8000. Stock solutions were prepared in dimethylsulfoxide (Sigma-Aldrich, ACS spectrophotometric grade) at 10 mM concentration by weighing an appropriate amount of each compound and adding the computed DMSO volume with a calibrated variable volume pipet (Eppendorf). A solution of PEG-8000 (30%, w/w) in water in a 50 mL centrifuge tube was prepared by weighing 15.0 g of PEG-8000 and adding water up to 50.0 g.
Solutions were analysed using an Agilent 1100 chromatograph with the following HPLC method: • Column: Waters X-terra 4.6x50 mm, 3.5 µm • Mobile phase A: water/acetonitrile (97/3 by volume) containing 0.1% trifluoroacetic acid • Mobile phase B: acetonitrile containing 0.1% trifluoroacetic acid • Flow = 1 mL/min, injection = 10 µL, detection wavelength 220 nm (8 nm bandwidth) with reference at 400 nm (40 nm bandwidth). • Gradient 1: from 100% A to 60% A in 6 min, down to 40% A in 1 min, followed by 3 min re-equilibration at 100% A. • Gradient 2: from 70% A to 30% A in 6 min, 1 min isocratic elution at 30% A, followed by 3 min re-equilibration at 70% A.
The following solutions were prepared by 50-fold dilution of the DMSO stock solutions: • Target concentration: 200 µM in water • Target concentration: 200 µM in 30% PEG-8000 / water
After equilibration (1 day at room temperature), all solutions were filtered through 0.45 µm cellulose filters (ProFill, 25 mm syringe filters, Alltech). Aliquots were placed in HPLC vials and submitted to analysis. Two 1 mL aliquots of each 30% PEG solution were placed into 14x100 mm pre-weighed test tubes. These tubes were weighed, and placed in liquid nitrogen to freeze the solution, and finally submitted to freeze-drying in a Lio-5P apparatus (5Pascal, Trezzano sul Naviglio, Italy). After one day, the tubes were weighed and water was added with a micropipette in order to match the original solution weight. A fraction of these solutions was diluted 1:10 with water (target concentration: 20 µM).

[2] = decimal logarithm of the molar aqueous solubility; cited from earlier work
[3] = Solubility in various aqueous PEG media, by HPLC (Example 2); conditions: aqueous with cosolvent or surfactant or cyclodextrin, kinetic from dmso stock, Average solubility, N=3
Procedure: Materials and methods. […] The following compounds were obtained from Fluka - Riedel deHaën: carbazol (Vetranal analytical standard), Polyethylene glycol 8000, Polyethylene glycol 20000, Polyethylene glycol 400. […] Solutions of PEG-8000 and PEG-20000 in water (30%, w/w) were prepared in 50 mL centrifuge tubes by weighing 15.0 g of the corresponding PEG and adding water up to 50.0 g. A solution containing PEG-8000 (10%, w/w) and PEG-400 (20%, w/w) was similarly prepared by mixing 5 g PEG-8000 with […], and adding water up to 50 g.
Results. […] Starting from DMSO stock solutions, dilute solutions with a nominal concentration of 200 µM were prepared by 50-fold dilution with one of three different aqueous PEG medium. After equilibration for 1 day at room temperature, these solutions were filtered through 0.45 µm cellulose filters (ProFill, 25 mm syringe filters, Alltech). Aliquots were placed in HPLC vials and submitted to analysis.

For O=C(O)Cc1ccccc1 [Compound 1, Phenylacetic acid], the “PEG solutions, freeze dried and reconstituted Test 1” value [1] was 181 µM, the “PEG solutions, freeze dried and reconstituted Test 2” value [1] was 187 µM and the CPEG [1] was 198 µM. The Cw [1] was 200 µM, the “PEG solutions, reconstituted and diluted 1:10 Test 1” value [1] was 17.7 µM and the “PEG solutions, reconstituted and diluted 1:10 Test 2” value [1] was 17.8 µM. For the same compound, the LogSw [2] was -0.89.
In the case of Cc1ccc(S(N)(=O)=O)cc1 [Compound 2, p-Toluenesulphonamide], the LogSw [2] is listed as -1.74.
In the case of CCOC(=O)c1ccc(O)cc1 [Compound 3, Ethyl-p-hydroxybenzoate], the LogSw [2] is listed as -2.35.
In the case of CC(=O)CC(c1ccccc1)c1c(O)c2ccccc2oc1=O (stereo not drawn) [Compound 6, Warfarin], the “PEG solutions, freeze dried and reconstituted Test 1” value [1] is reported as 199 µM, the “PEG solutions, freeze dried and reconstituted Test 2” value [1] is reported as 199 µM and the CPEG [1] is reported as 198 µM. The Cw [1] was 155 µM, the “PEG solutions, reconstituted and diluted 1:10 Test 1” value [1] was 20.2 µM and the “PEG solutions, reconstituted and diluted 1:10 Test 2” value [1] was 20.4 µM. The LogSw [2] was -4.26.
In the case of c1ccc2c(c1)[nH]c1ccccc12 [Compound 8, Carbazol], the “measured concentration after ten-fold dilution of the reconstituted PEG lyophilized samples” value ([1]; 3% PEG-8000, range over both tests and both compounds) is reported as 19.0 to 19.4 µM, the “PEG solutions, freeze dried and reconstituted Test 1” value [1] is reported as 195 µM and the “PEG solutions, freeze dried and reconstituted Test 2” value [1] is reported as 195 µM. The CPEG [1] was 196 µM, the Cw [1] was 8.6 µM and the “PEG solutions, reconstituted and diluted 1:10 Test 1” value [1] was 19.0 µM. The “PEG solutions, reconstituted and diluted 1:10 Test 2” value [1] was 19.2 µM, the solubility at 1 day ([3]; 20% PEG-400 + 10% PEG-8000, nominal 200 µM) was 187 µM and the solubility at 1 day ([3]; 30% PEG-8000, nominal 200 µM) was 194 µM (≈ 32.4 µg/mL). For the same compound, the solubility at 1 day ([3]; 30% PEG-20000, nominal 200 µM) was 188 µM (≈ 31.4 µg/mL) and the LogSw [2] was -5.27.
